Experimental data: US9302999B2, “Substituted triazoles as herbicides” (E. I. DU PONT DE NEMOURS AND COMPANY, priority 2012, dated 2016)

Legend:
Format in all cases: in vivo
[1] = system: bromegrass, downy (downy bromegrass, Bromus tectorum); assay: Test C pre-/postemergence: bromegrass, downy
In short: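 Preemergence on seeds in loam/sand, postemergence on 2–18 cm (1–4-leaf) plants in peat-based medium; compounds in non-phytotoxic solvent with surfactant. After 13–15 days in greenhouse, visual rating versus controls, 0 (no effect) to 100 (complete control).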

[2] = system: crabgrass, large (large crabgrass, Digitaria sanguinalis); assay: Test A pre-/postemergence: crabgrass, large
In short: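 Injury was scored visually on a 0 (no effect) to 100 (complete control) scale versus untreated controls roughly ten days after treatment in the greenhouse. Compounds, formulated in surfactant-containing non-phytotoxic solvent, went on as soil-directed preemergence spray or postemergence to one- to two-leaf plants 2–10 cm tall.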

[3] = system: ragweed (common ragweed, Ambrosia elation); assay: Test C pre-/postemergence: ragweed
Description: Seeds of plant species selected from blackgrass (Alopecurus myosuroides), bromegrass, downy (downy bromegrass, Bromus tectorum), foxtail, green (green foxtail, Setaria viridis), ryegrass, Italian (Italian ryegrass, Lolium multiflorum), winter wheat (Triticum aestivum), wild oat (Avena fatua), galium (catchweed bedstraw, Galium aparine), bermudagrass (Cynodon dactylon), surinam grass (Brachiaria decumbens), cocklebur (common cocklebur, Xanthium strumarium), corn (Zea mays), large crabgrass (Digitaria sanguinalis), woolly cupgrass (Eriochloa villosa), foxtail, giant (giant foxtail, Setaria faberii), goosegrass (Eleusine indica), johnsongrass (Sorghum halepense), kochia (Kochia scoparia), lambsquarters (Chenopodium album), morningglory (Ipomoea coccinea), nightshade (eastern black nightshade, Solanum ptycanthum), nutsedge, yellow (yellow nutsedge, Cyperus esculentus), pigweed (Amaranthus retroflexus), ragweed (common ragweed, Ambrosia elation), soybean (Glycine max), common (oilseed) sunflower (Helianthus annuus), Russian thistle (Salsola kali) and velvetleaf (Abutilon theophrasti) were planted into a blend of loam soil and sand and treated preemergence with test chemicals formulated in a non-phytotoxic solvent mixture which included a surfactant.
At the same time, plants selected from these crop and weed species and also barley (winter barley, Hordeum vulgare), canarygrass (Phalaris minor), chickweed (common chickweed, Stellaria media) windgrass (Apera spica-venti) and deadnettle (henbit deadnettle, Lamium amplexicaule) were planted in pots containing Redi-Earth® planting medium (Scotts Company, 14111 Scottslawn Road, Marysville, Ohio 43041) comprising spaghnum peat moss, vermiculite, wetting agent and starter nutrients and treated with postemergence applications of test chemicals formulated in the same manner. Plants ranged in height from 2 to 18 cm (1- to 4-leaf stage) for postemergence treatments.
(§1) Treated plants and controls were maintained in a greenhouse for 13 to 15 days, after which time all species were compared to controls and visually evaluated. Plant response ratings, summarized in Table C, are based on a scale of 0 to 100 where 0 is no effect and 100 is complete control. A dash (-) response means no test result.

[4] = system: barnyardgrass (Echinochloa crus-galli); assay: Test C flooded paddy test: barnyardgrass; conditions: scale 0 to 100 (0 no effect, 100 complete control)
In short: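 Visual ratings from 0 (no effect) to 100 (complete control), made against untreated controls 13 to 15 days after treatment, express plant response. Compounds went directly into paddy water over 2-leaf stage plants in pots flooded to 3 cm.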

[5] = system: field poppy (Papaver rhoeas); assay: Test D pre-/postemergence: field poppy
Description: (§2) Seeds of plant species selected from bluegrass (annual bluegrass, Poa annua), blackgrass (Alopecurus myosuroides), canarygrass (Phalaris minor), chickweed (common chickweed, Stellaria media), galium (catchweed bedstraw, Galium aparine), bromegrass, downy (downy bromegrass, Bromus tectorum), field poppy (Papaver rhoeas), field violet (Viola arvensis), foxtail, green (green foxtail, Setaria viridis), deadnettle (henbit deadnettle, Lamium amplexicaule), ryegrass, Italian (Italian ryegrass, Lolium multiflorum), kochia (Kochia scoparia), lambsquarters (Chenopodium album), oilseed rape (Brassica napus), pigweed (Amaranthus retroflexus), Russian thistle (Salsola iberica), chamomile (scentless chamomile, Matricaria inodora), speedwell (bird's-eye speedwell, Veronica persica), barley, spring (spring barley, Hordeum vulgare), wheat, spring (spring wheat, Triticum aestivum), buckwheat, wild (wild buckwheat, Polygonum convolvulus), mustard, wild (wild mustard, Sinapis arvensis), oat, wild (wild oat, Avena fatua), radish, wild (wild radish, Raphanus raphanistrum), windgrass (Apera spica-venti), barley, winter (winter barley, Hordeum vulgare), and wheat, winter (winter wheat, Triticum aestivum) were planted into a silt loam soil and treated preemergence with test chemicals formulated in a non-phytotoxic solvent mixture which included a surfactant. At the same time, these same crop and weed species were planted in pots containing the planting medium comprising spaghnum peat moss, vermiculite, wetting agent and starter nutrients and treated with postemergence applications of the test chemicals formulated in the same manner. Plants ranged in height from 2 to 18 cm (1- to 4-leaf stage).
as §1, with “controlled growth environment” for “greenhouse”, “14” for “13”, “21 days” for “15 days,”, “D,” for “C,”

[6] = system: galium (catchweed bedstraw, Galium aparine); assay: Test D pre-/postemergence: galium; conditions: Postemergence; for Plant response rating, Galium: scale 0 to 100
Description: as §2
as §1, with “controlled growth environment” for “greenhouse”, “14” for “13”, “21 days” for “15 days,”, “D,” for “C,”

[7] = Postemergence, 16 g ai/ha, scale 0 to 100, 0 no effect, 100 complete control
[8] = Postemergence, 31 g ai/ha, scale 0 to 100 (0 no effect, 100 complete control)
[9] = Postemergence, 62 g ai/ha, scale 0 to 100 (0 no effect, 100 complete control)
[10] = Postemergence, 125 g ai/ha, scale 0 to 100, 0 no effect, 100 complete control
[11] = Postemergence, 250 g ai/ha, scale 0 to 100
[12] = Postemergence, 16 g ai/ha, scale 0 to 100
[13] = 31 g ai/ha, scale 0 to 100 (0 no effect, 100 complete control)
[14] = 62 g ai/ha, scale 0 to 100 (0 no effect, 100 complete control)
[15] = 125 g ai/ha, scale 0 to 100, 0 no effect, 100 complete control
[16] = Postemergence, 125 g ai/ha, 0 to 100 scale, 0 is no effect, 100 is complete control
[17] = Postemergence, 500 g ai/ha, visual rating on 0 to 100 scale (0 no effect, 100 complete control), approximately ten days
[18] = Preemergence, 125 g ai/ha, 0 to 100 scale where 0 is no effect and 100 is complete control
[19] = Preemergence, 500 g ai/ha, 0 to 100 scale (0 no effect, 100 complete control)
[20] = Preemergence, 31 g ai/ha, scale of 0 to 100, 0 is no effect, 100 is complete control
[21] = Preemergence, 62 g ai/ha, scale of 0 to 100, 0 is no effect, 100 is complete control
[22] = Preemergence, 125 g ai/ha, scale 0 to 100, 0 no effect, 100 complete control
[23] = Preemergence, 250 g ai/ha, scale 0 to 100, 0 no effect, 100 complete control

Row | Structure (SMILES) | Plant response rating, Bromegrass, Downy [1, 8] | Plant response rating, Bromegrass, Downy [1, 9] | Plant response rating, Bromegrass, Downy [1, 10] | Plant response rating, Ragweed [3, 8] | Plant response rating, Ragweed [3, 10] | Plant response rating, Bromegrass, Downy [1, 11] | Plant response rating: Field Poppy [5, 8] | Plant response rating: Field Poppy [5, 9] | Plant response rating: Field Poppy [5, 10] | Plant response rating, Field Poppy [5, 12] | Plant response rating: Galium [6, 13] | Plant response rating: Galium [6, 14] | Plant response rating: Galium [6, 15] | Plant response rating, Galium ([6]; 16 g ai/ha) | Crabgrass, Large plant response rating [2, 16] | Crabgrass, Large plant response rating [2, 17] | Plant response rating, Crabgrass, Large [2, 18] | Plant response rating, Crabgrass, Large [2, 19] | Plant response rating, Ragweed [3, 11] | Plant response rating, Bromegrass, Downy [1, 20] | further results
1 | Cc1nn(-c2ccc(C(F)(F)F)cc2)nc1Cc1cccc(C(F)(F)F)c1 [Compound 124] | 0 | 0 | 0 | 50 | 65 | – | – | – | – | – | – | – | – | – | – | – | – | – | – | – | Plant response rating, Bromegrass, Downy [1, 7]: 0; Crabgrass, Large plant response rating ([2]; Postemergence, 1000 g ai/ha, visual rating on 0 to 100 scale (0 no effect, 100 complete control), approximately ten days): 90; Crabgrass, Large plant response rating ([2]; Preemergence, 1000 g ai/ha, 0 to 100 scale, 0 is no effect, 100 is complete control): 100; Plant response rating, Ragweed [3, 7]: 45; Plant response rating, Ragweed [3, 9]: 65; Plant response rating, Barnyardgrass ([4]; Flood (flooded paddy test), 125 g ai/ha, visual rating after 13 to 15 days): 50; Plant response rating, Barnyardgrass ([4]; Flood (flooded paddy test), 250 g ai/ha, visual rating after 13 to 15 days): 50; Plant response rating, Barnyardgrass ([4]; Flood, 31 g ai/ha): 20; Plant response rating, Barnyardgrass ([4]; Flood, 62 g ai/ha): 40
2 | Cc1nn(-c2ccnc(C(F)(F)F)c2)nc1Cc1ccnc(C(F)(F)F)c1 [Compound 137] | 10 | 30 | 60 | 65 | 75 | 85 | 40 | 100 | 100 | 30 | 20 | 40 | 75 | 20 | 90 | 90 | 90 | 90 | 85 | – | Plant response rating: Field Poppy ([5]; Postemergence, 250 g ai/ha, scale 0 to 100 (0 no effect, 100 complete control)): 100; Plant response rating: Galium ([6]; 250 g ai/ha, scale 0 to 100 (0 no effect, 100 complete control)): 75
3 | Cc1nn(-c2ccc(F)c(F)c2)nc1Oc1ccnc(C(F)(F)F)c1 [Compound 145] | 5 | 10 | 20 | 60 | 70 | 25 | 100 | 100 | 100 | 75 | 35 | 40 | 70 | 30 | 90 | 90 | 100 | 100 | 70 | 5 | Plant response rating, Bromegrass, Downy [1, 21]: 20; Plant response rating, Bromegrass, Downy [1, 22]: 70; Plant response rating, Bromegrass, Downy [1, 23]: 85; Plant response rating, Field Poppy ([5]; Postemergence, 8 g ai/ha, scale 0 to 100): 25; Plant response rating, Galium ([6]; 8 g ai/ha): 5; Plant response rating, Ragweed [3, 20]: 0; Plant response rating, Ragweed [3, 21]: 10; Plant response rating, Ragweed [3, 22]: 40; Plant response rating, Ragweed [3, 23]: 55
4 | Cc1nn(-c2ccc(F)c(C(F)(F)F)c2)nc1Oc1ccnc(C(F)(F)F)c1 [Compound 147] | – | – | – | – | – | – | 90 | 100 | 100 | 90 | 65 | 75 | 90 | 55 | 80 | 90 | 100 | 100 | – | 10 | Plant response rating, Bromegrass, Downy [1, 21]: 45; Plant response rating, Bromegrass, Downy [1, 22]: 85; Plant response rating, Bromegrass, Downy [1, 23]: 90; Plant response rating, Field Poppy ([5]; Preemergence, 16 g ai/ha, scale 0 to 100 (0 no effect, 100 complete control)): 55; Plant response rating, Field Poppy ([5]; Preemergence, 31 g ai/ha, scale 0 to 100 (0 no effect, 100 complete control)): 75; Plant response rating, Field Poppy ([5]; Preemergence, 62 g ai/ha, scale 0 to 100): 95; Plant response rating, Field Poppy ([5]; Preemergence, 125 g ai/ha, scale 0 to 100): 100; Plant response rating, Ragweed [3, 20]: 25; Plant response rating, Ragweed [3, 21]: 40; Plant response rating, Ragweed [3, 22]: 70; Plant response rating, Ragweed [3, 23]: 80
